Values of other authors in US20240180834A1, “DEVELOPMENT OF COVID-19 VACCINE USING A DUAL TLR LIGAND LIPOSOME ADJUVANT” (priority 2021, published 2024).

Conditions: earlier work

CCCCCCCCCCCCCCCCCC(=O)NCCCCOn1c(CCCC)nc2c(N)nc3ccccc3c21 [3M-052, N-[4-(4-amino-2-butylimidazo[4,5-c]quinolin-1-yl)oxybutyl]octadecanamide]
type of immune response elicited by the TLR agonist in the nanoliposome adjuvant: elicited a robust systemic Th1 response
